Target: Heat shock protein HSP 90-beta (Homo sapiens, UniProt P08238)
Assay: Binding affinity to human recombinant HSP90

Heat shock protein HSP 90-beta, sequence (P08238 whole entry): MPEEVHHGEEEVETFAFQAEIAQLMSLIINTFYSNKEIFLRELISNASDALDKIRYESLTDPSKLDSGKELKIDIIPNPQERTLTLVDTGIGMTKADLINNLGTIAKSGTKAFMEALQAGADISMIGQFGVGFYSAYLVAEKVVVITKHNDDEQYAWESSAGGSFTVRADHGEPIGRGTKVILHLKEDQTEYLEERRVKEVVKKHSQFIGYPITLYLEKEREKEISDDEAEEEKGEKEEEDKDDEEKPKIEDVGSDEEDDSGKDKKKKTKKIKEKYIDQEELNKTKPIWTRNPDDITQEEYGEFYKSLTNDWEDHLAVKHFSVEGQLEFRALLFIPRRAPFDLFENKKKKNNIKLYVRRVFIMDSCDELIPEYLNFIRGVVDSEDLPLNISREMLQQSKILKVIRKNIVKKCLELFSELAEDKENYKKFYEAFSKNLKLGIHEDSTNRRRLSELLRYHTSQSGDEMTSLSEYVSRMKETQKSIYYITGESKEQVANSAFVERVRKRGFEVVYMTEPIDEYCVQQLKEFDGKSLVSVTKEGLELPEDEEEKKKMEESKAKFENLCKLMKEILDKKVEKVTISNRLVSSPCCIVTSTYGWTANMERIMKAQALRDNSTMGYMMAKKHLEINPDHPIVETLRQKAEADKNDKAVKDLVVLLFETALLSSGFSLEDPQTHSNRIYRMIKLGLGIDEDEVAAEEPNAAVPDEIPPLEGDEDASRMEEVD

Structure (SMILES)	Kd
CO[C@H]1C=CC=C(C)C(=O)Nc2cc(O)c(N=CCN(C)C)c(c2O)C[C@@H](C)C[C@H](OC)[C@H](N)[C@@H](C)/C=C(\C)[C@@H]1OC(N)=O	> 25 µM
CO/N=C1/[C@@H](OC)C[C@H](C)Cc2c(O)c(cc(O)c2N=CCN(C)C)NC(=O)C(C)=CC=C[C@H](OC)[C@@H](OC(N)=O)/C(C)=C/[C@@H]1C [(8S,9S,12S,14S,16R)-19-(2-(dimethylamino)ethylamino)-8,14-dimethoxy-13-(methoxyimino)-4,10,12,16-tetramethyl-3,20,22-trioxo-2-azabicyclo[16.3.1]docosa-1(21),4,6,10,18-pentaen-9-yl carbamate]	> 100 µM
CO[C@H]1C[C@H](C)Cc2c(O)c(cc(O)c2N=CCN(C)C)NC(=O)C(C)=CC=C[C@H](OC)[C@@H](OC(N)=O)/C(C)=C/[C@H](C)/C1=N\OCc1ccccc1	> 100 µM
C=CC=Nc1c(O)cc2c(O)c1C[C@@H](C)C[C@H](OC)[C@H](OC(=O)CN)[C@@H](C)/C=C(\C)[C@H](OC(N)=O)[C@@H](OC)C=CC=C(C)C(=O)N2 [(8S,9S,12S,13R,14S,16R)-19-(allylamino)-9-(carbamoyloxy)-8,14-dimethoxy-4,10,12,16-tetramethyl-3,20,22-trioxo-2-azabicyclo[16.3.1]docosa-1(21),4,6,10,18-pentaen-13-yl 2-aminoacetate]	> 25 µM

From BindingDB's records for doi:10.1021/jm900098v (Kosan Biosciences, 2009)
